Source: paper PMC9909341, “TLQP-21 is a low potency partial C3aR activator on human primary macrophages” (Frontiers in Immunology, 2023)

Legend:
human C3aR (HMDMs) = assay: inhibition of ligand-induced ERK1/2 phosphorylation by SB290157 in HMDMs; type: cell-based; details: 5 µM SB290157, 30 min pre-treatment
Text: HMDMs were generated and cultured as previously described ([20]), with experiments approved by The University of Queensland Human Research Ethics Committee. Briefly, human buffy coat blood from anonymous healthy donors was obtained through the Australian Red Cross Blood Service (Brisbane, Australia). Human CD14+ monocytes were isolated from blood using Lymphoprep density centrifugation (STEMCELL, Melbourne, Australia) followed by CD14+ MACS magnetic bead separation (Miltenyi Biotec, Sydney, Australia). The isolated monocytes were differentiated for 7 days in Iscove’s Modified Dulbecco’s Medium supplemented with 10% FBS, 100 IU/ml penicillin, 100 μg/ml streptomycin and 15 ng/ml recombinant human macrophage colony stimulating factor (BioLegend, San Diego, USA) on 10 mm square dishes (Bio-strategy, Brisbane, Australia). Non-adherent cells were removed by washing with DPBS, and the adherent differentiated HMDMs were harvested by gentle scraping.
Ligand-induced ERK1/2 phosphorylation was assessed using the AlphaLISA Surefire Ultra p-ERK1/2 (Thr202/Tyr204) kit (PerkinElmer, Melbourne, Australia) following the manufacturer’s protocol as previously described ([18], [20], [22]). Briefly, CHO-K1, CHO-C3aR, CHO-C5aR1, HMDMs (50,000/well) or BMDMs (90,000/well) were seeded in tissue culture-treated 96-well plates (Corning, Corning, USA) for 24 h and serum-starved overnight. All ligand dilutions were prepared in serum-free medium (SFM) containing 0.1% BSA. For inhibition assays, cells were pre-treated with the following ligands (5 µM SB290157, or respective concentrations of hC3a, mC3a, hC5a, hTLQP-21, and mTLQP-21) or the solvent-only control for 30 min before agonist (hC3a, hTLQP-21 and mTLQP-21) addition. The concentration and identity of the ligands are described in detail in the figure legends. For stimulation, cells were treated with ligands at the indicated concentrations for 10 min at RT and then immediately lysed using AlphaLISA lysis buffer on a microplate shaker (450 rpm, 10 min). For the detection of phospho-ERK1/2 content, cell lysate (5 μL/well) was transferred to a 384-well ProxiPlate (PerkinElmer, Melbourne, Australia) and added to the donor and acceptor reaction mix (2.5 μL/well, respectively), followed by a 2-h incubation at RT in the dark. On a Tecan Spark 20M (Tecan, Männedorf, Switzerland), the plate was measured using standard AlphaLISA settings.
Figure 3 Agonistic and antagonistic activities of hTLQP-21 and mTLQP-21 in human monocyte-derived macrophages. […] The phospho-ERK1/2 content in the cell lysate was measured and normalised to the maximum hC3a/hC5a-induced levels before being combined. […]

C5aR1 = details: at the concentration used (5 µM); ref [20]; cited from earlier work
Text: (§1) However, only mouse TLQP-21 was used in these studies and to the best of our knowledge, no data is available for the potential activity of TLQP-21 in human immune cells. […] However, by contrast to hC3a, the agonistic activity of TLQP-21 peptides was markedly weaker in HMDMs relative to CHO-C3aR, with EC50 values in the high micromolar ...

C3aR = details: at the concentration used (5 µM); ref [20]; cited from earlier work
Text: as §1

NC(N)=NCCC[C@H](NC(=O)COCC(c1ccccc1)c1ccccc1)C(=O)O [SB290157]
inhibition of hTLQP-21 and mTLQP-21 induced ERK signalling (human C3aR (HMDMs); HMDMs, n = 4 donors): 70-90%
remaining C3a-induced ERK signalling with SB290157 (human C3aR (HMDMs); agonist C3a, HMDMs): less than 20 % of the untreated level
remaining hTLQP-21 induced ERK activation with SB290157 (human C3aR (HMDMs); agonist hTLQP-21): 29 % of the control level
remaining mTLQP-21 induced ERK activation with SB290157 (human C3aR (HMDMs); agonist mTLQP-21): 16 % of the control level
agonist activity of SB290157 on C5aR1 (C5aR1): does not exhibit any detectable agonist activity
agonist activity of SB290157 on C3aR (C3aR): does not exhibit any detectable agonist activity
